Reference: PMC8864165, “Functional Effects of ARV-1502 Analogs Against Bacterial Hsp70 and Implications for Antimicrobial Activity” (Frontiers in Chemistry, 2022)
pKi: −log10 of the molar value. Square brackets hold non-standard residues; d marks the D form. Peptide text beside a SMILES is read from it. Ac6c = NC1(C(=O)O)CCCCC1

Key:
S. aureus DnaK [1] = target: T1, S. aureus DnaK (Staphylococcus aureus, UniProt P99110); experiment: Competitive fluorescence polarization Ki; format: binding; settings: unlabeled peptide competing with Cf-labeled peptide; DnaK 16 µmol/L; 90 + 90 min, 28°C
T1 construct: His6-tag with TEV site ([…]) (N, cleaved yes); made in house; host or cells: E. coli (DE3) Rosetta pLysS
T1 sequence (P99110 whole entry): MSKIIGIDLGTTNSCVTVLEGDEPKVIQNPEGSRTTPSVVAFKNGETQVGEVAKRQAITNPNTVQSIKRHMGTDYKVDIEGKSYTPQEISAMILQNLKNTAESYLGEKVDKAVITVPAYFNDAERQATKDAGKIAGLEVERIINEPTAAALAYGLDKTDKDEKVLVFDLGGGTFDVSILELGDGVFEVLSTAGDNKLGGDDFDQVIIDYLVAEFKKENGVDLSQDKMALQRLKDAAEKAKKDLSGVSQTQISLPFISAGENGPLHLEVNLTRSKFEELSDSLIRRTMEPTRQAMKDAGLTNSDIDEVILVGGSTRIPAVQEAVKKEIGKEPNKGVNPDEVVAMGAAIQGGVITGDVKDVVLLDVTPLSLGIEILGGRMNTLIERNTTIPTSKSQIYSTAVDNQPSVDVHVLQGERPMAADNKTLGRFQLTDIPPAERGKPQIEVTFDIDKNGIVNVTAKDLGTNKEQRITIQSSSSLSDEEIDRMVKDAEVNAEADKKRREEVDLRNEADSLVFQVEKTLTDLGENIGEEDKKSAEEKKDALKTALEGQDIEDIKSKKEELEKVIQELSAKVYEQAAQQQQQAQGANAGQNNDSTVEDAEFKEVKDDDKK
Procedure: (§1) The quality of the experimental set up was evaluated by the Z′ factor ([Zhang et al., 1999]) (Supplementary Table S2). […] The obtained FP-values were normalized to the FP-values determined for lead sequence ARV-1502.

E. coli DnaK [2] = target: T2, E. coli DnaK (Escherichia coli, UniProt P0A6Y8); experiment: Competitive fluorescence polarization Ki; format: binding; settings: unlabeled peptide competing with Cf-labeled peptide; DnaK 5 µmol/L; 90 + 90 min, 28°C
T2 construct: His6-tag with TEV site ([…]) (N, cleaved yes); made in house; host or cells: E. coli (DE3) Rosetta pLysS
T2 sequence (P0A6Y8 whole entry): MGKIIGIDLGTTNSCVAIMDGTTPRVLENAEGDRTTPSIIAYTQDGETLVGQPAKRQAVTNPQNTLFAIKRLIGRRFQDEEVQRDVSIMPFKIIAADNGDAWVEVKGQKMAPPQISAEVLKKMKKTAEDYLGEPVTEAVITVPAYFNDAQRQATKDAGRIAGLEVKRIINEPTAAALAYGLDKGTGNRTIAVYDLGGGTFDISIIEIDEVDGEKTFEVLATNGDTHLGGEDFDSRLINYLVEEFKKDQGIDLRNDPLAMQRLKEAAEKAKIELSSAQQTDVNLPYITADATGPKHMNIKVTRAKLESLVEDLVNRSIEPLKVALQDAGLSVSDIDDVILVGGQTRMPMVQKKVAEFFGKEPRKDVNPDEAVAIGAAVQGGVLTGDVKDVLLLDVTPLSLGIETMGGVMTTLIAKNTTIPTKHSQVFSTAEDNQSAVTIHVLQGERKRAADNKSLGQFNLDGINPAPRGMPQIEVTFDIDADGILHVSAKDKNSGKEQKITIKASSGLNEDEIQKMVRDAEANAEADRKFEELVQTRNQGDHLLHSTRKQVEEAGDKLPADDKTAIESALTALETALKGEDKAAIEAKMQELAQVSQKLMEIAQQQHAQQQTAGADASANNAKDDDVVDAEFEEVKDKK
Procedure: as §1

S. aureus DnaK [3] = target: T1, S. aureus DnaK; experiment: FP peptide binding screening against Cf-ARV-1502; settings: screening: DnaK 16 µmol/L, unlabeled peptide 35 µmol/L, duplicate, below 1 = better than ARV-1502
E. coli DnaK [4] = target: T2, E. coli DnaK; format: binding
Procedure: The plate was incubated (90 min, 28°C, dark) and Cf-ARV-1502 (80 nmol/L; 10 µL/well) added. […] Each peptide was screened in duplicate. Control samples either lacked the unlabeled peptide (maximum) or contained Cf-ARV-1502 in buffer (minimum).
as §1

[5] = tested on: S. aureus DnaK/DnaJ/GrpE-chaperone system; experiment: ATPase activity assay (malachite green), chaperone system; format: biochemical, Staphylococcus aureus; settings: peptide screen, 0.3 mmol/L peptide; for ATPase activity of the S. aureus DnaK/DnaJ/GrpE system, normalized to activity without peptide (100%): 37°C, 2 h, triplicates
Procedure: (§2) ATPase activity of E. coli and S. aureus chaperones was studied in the presence of an AMP using a 384-well plate colorimetric assay ([Chang et al., 2008]; [Zahn et al., 2013]). […] The chaperone mix (13.5 µL) was incubated with an aqueous peptide solution (1.5 µL; final concentration 0.3 mmol/L) at 37°C for 30 min in a non-binding 384-well plate (flat bottom, Greiner Bio-One GmbH). Each sample was prepared in triplicates on the same plate. The reaction was started by addition of ATP dissolved in assay buffer (5 µL, 4 mmol/L) and the plate centrifuged (500 × g, 2 min; Allegra™ 21R, Beckmann Coulter, Krefeld, Germany) before incubated (37°C, 2 h). The released phosphate was quantified using an external phosphate dilution series (10–200 µmol/L KH2PO4 in assay buffer) prepared on each plate and treated equally as the samples. The reaction was stopped by adding assay buffer (80 µL) to all samples except the phosphate dilution series. Aliquots of all samples (10 µL) were transferred to a clear 384-well plate (flat bottom, Greiner Bio-One GmbH) and malachite green reagent added (90 µL; mixture of malachite green in water (0.04%, w/v), ammonium molybdate (2%, w/w) in aqueous sulfuric acid (3.5 mol/L), and water at a ratio of 1:1:3.6, v/v/v). After 15 min, the absorbance was recorded at 620 nm on the […]™ microplate reader. The phosphate standard curve was fitted by a hyperbolic equation y = (ax)/(b + x) + c.

[6] = tested on: E. coli DnaK/DnaJ/GrpE-chaperone system; experiment: as above; format: biochemical, Escherichia coli; settings: peptide screen, 0.3 mmol/L peptide; for ATPase activity of the E. coli DnaK/DnaJ/GrpE system, normalized to activity without peptide (100%): 37°C, 2 h, triplicates
Procedure: as §2

Row | Compound | binding to S. aureus DnaK, FP-value normalized to ARV-1502 (S. aureus DnaK [3]) | binding to E. coli DnaK, FP-value normalized to ARV-1502 (E. coli DnaK [4]) | further results
1 | CC(C)C[C@H](NC(=O)[C@H](Cc1ccc(O)cc1)NC(=O)[C@@H]1CCCN1C(=O)[C@H](CCCNC(=N)N)NC(=O)[C@@H]1CCCN1C(=O)[C@H](CCCCN)NC(=O)[C@H](CCCCN)NC(=O)[C@@H]1CCCN1C(=O)[C@H](CCCNC(=N)N)NC(=O)C1(N)CCCCC1)C(=O)N1CCC[C@H]1C(=O)N[C@@H](Cc1ccccc1)C(=O)N1CCC[C@H]1C(=O)N[C@@H](CCCNC(=N)N)C(=O)N1CCC[C@H]1C(=O)N1CCC[C@H]1C(=O)N[C@@H](CCCNC(=N)N)C(=O)N1CCC[C@H]1C(=O)N[C@H](C(=O)N[C@@H](CCCNC(=N)N)C(N)=O)C(C)C [compound 46] (H-[Ac6c]RPKKPRPYLPFPRPPRPVR-NH2) | – | – | pKi (S. aureus DnaK [1]): 4.81; pKi (E. coli DnaK [2]): 6.18
2 | CC(C)C[C@H](NC(=O)[C@H](Cc1ccc(O)cc1)NC(=O)[C@@H]1CCCN1C(=O)[C@H](CCCNC(=N)N)NC(=O)[C@@H]1CCCN1C(=O)[C@H](Cc1ccccc1)NC(=O)[C@H](Cc1ccccc1)NC(=O)[C@@H]1CCCN1C(=O)[C@H](CCCNC(=N)N)NC(=O)C1(N)CCCCC1)C(=O)N[C@@H](CO)C(=O)N[C@@H](CCCNC(=N)N)C(=O)N1CCC[C@H]1C(=O)N[C@@H](CCCNC(=N)N)C(=O)N1CCC[C@H]1C(=O)N1CCC[C@H]1C(=O)N[C@@H](CCCNC(=N)N)C(=O)N1CCC[C@H]1C(=O)N[C@H](C(=O)N[C@@H](CCCNC(=N)N)C(N)=O)C(C)C [compound 99] (H-[Ac6c]RPFFPRPYLSRPRPPRPVR-NH2) | best binders | best binders | DnaK binding in the screening, in words (E. coli DnaK [4]; FP screening, DnaK variant not stated at the place): best binding
3 | CC(C)C[C@H](NC(=O)[C@H](CO)NC(=O)[C@@H]1CCCN1C(=O)[C@H](CCCNC(=N)N)NC(=O)[C@@H]1CCCN1C(=O)[C@H](CCCCN)NC(=O)[C@H](CC(=O)O)NC(=O)[C@@H]1CCCN1C(=O)[C@H](CCCNC(=N)N)NC(=O)C1(N)CCCCC1)C(=O)N1CCC[C@H]1C(=O)N[C@@H](Cc1ccccc1)C(=O)N1CCC[C@H]1C(=O)N[C@@H](CCCNC(=N)N)C(=O)N1CCC[C@H]1C(=O)N1CCC[C@H]1C(=O)N[C@@H](CCCNC(=N)N)C(=O)N1CCC[C@H]1C(=O)N[C@H](C(=O)N[C@@H](CCCNC(=N)N)C(N)=O)C(C)C [compound 130] (H-[Ac6c]RPDKPRPSLPFPRPPRPVR-NH2) | – | – | pKi (S. aureus DnaK [1]): 5.07
4 | CC(C)C[C@H](NC(=O)[C@H](Cc1ccc(O)cc1)NC(=O)[C@@H]1CCCN1C(=O)[C@H](CCCNC(=N)N)NC(=O)[C@@H]1CCCN1C(=O)[C@H](CCCCN)NC(=O)[C@H](CCCCN)NC(=O)[C@@H]1CCCN1C(=O)[C@H](CCCNC(=N)N)NC(=O)C1(N)CCCCC1)C(=O)N1CCC[C@H]1C(=O)N[C@@H](CCCNC(=N)N)C(=O)N1CCC[C@H]1C(=O)N[C@@H](CCCNC(=N)N)C(=O)N1CCC[C@H]1C(=O)N1CCC[C@H]1C(=O)N[C@@H](CCCNC(=N)N)C(=O)N1CCC[C@H]1C(=O)N[C@H](C(=O)N[C@@H](CCCNC(=N)N)C(N)=O)C(C)C [peptide 2] (H-[Ac6c]RPKKPRPYLPRPRPPRPVR-NH2) | – | – | pKi (E. coli DnaK [2]): 6.22
5 | CC(C)C[C@H](NC(=O)[C@H](Cc1ccc(O)cc1)NC(=O)[C@@H]1CCCN1C(=O)[C@H](CCCNC(=N)N)NC(=O)[C@@H]1CCCN1C(=O)[C@H](Cc1ccccc1)NC(=O)[C@H](Cc1ccccc1)NC(=O)[C@@H]1CCCN1C(=O)[C@H](CCCNC(=N)N)NC(=O)C1(N)CCCCC1)C(=O)N1CCC[C@H]1C(=O)N[C@@H](CCCNC(=N)N)C(=O)N[C@@H](CCCCN)C(=O)N[C@@H](CCCNC(=N)N)C(=O)N1CCC[C@H]1C(=O)N1CCC[C@H]1C(=O)N[C@@H](CCCNC(=N)N)C(=O)N1CCC[C@H]1C(=O)N[C@H](C(=O)N[C@@H](CCCNC(=N)N)C(N)=O)C(C)C [peptide 105] (H-[Ac6c]RPFFPRPYLPRKRPPRPVR-NH2) | best binders | best binders | –
6 | Chex-RPDDPRPDLPRPRPPRPVR-NH2 [compound 53, substituted analog of ARV-1502] | – | – | increase of ATPase activity, S. aureus chaperone system [5]: ≥ 60%
7 | Chex-RPDDPRPKLPRPRPPRPVR-NH2 [compound 54, substituted analog of ARV-1502] | best binders | – | –
8 | Chex-RPDDPRPYLPLPRPPRPVR-NH2 [compound 66, substituted analog of ARV-1502] | – | – | decrease of ATPase activity, E. coli chaperone system [6]: at least 40%; ATPase activity of the E. coli DnaK/DnaJ/GrpE system, normalized to activity without peptide (100%) [6]: below 60%
9 | Chex-RPDDPRPYLPRDRPPRPVR-NH2 [compound 68, substituted analog of ARV-1502] | – | – | decrease of ATPase activity, E. coli chaperone system [6]: 50%
10 | Chex-RPDKPRPDDPRPRPPRPVR-NH2 [compound 107, substituted analog of ARV-1502] | – | – | increase of ATPase activity, S. aureus chaperone system [5]: ≥ 60%
11 | Chex-RPDKPRPDKPRPRPPRPVR-NH2 [compound 108, substituted analog of ARV-1502] | bound neither | bound neither | –
12 | Chex-RPDKPRPDLPRDRPPRPVR-NH2 [compound 117, substituted analog of ARV-1502] | – | – | increase of ATPase activity, S. aureus chaperone system [5]: ≥ 60%; ATPase activity of the E. coli DnaK/DnaJ/GrpE system, normalized to activity without peptide (100%) [6]: below 60%
13 | Chex-RPDKPRPDLPRSRPPRPVR-NH2 [compound 119, substituted analog of ARV-1502] | – | – | ATPase activity of the S. aureus DnaK/DnaJ/GrpE system, normalized to activity without peptide (100%) [5]: more than 160%
14 | Chex-RPDKPRPKSPRPRPPRPVR-NH2 [compound 122, substituted analog of ARV-1502] | bound neither | bound neither | –
15 | Chex-RPDKPRPSLDRPRPPRPVR-NH2 [compound 128, substituted analog of ARV-1502] | – | – | ATPase activity of the E. coli DnaK/DnaJ/GrpE system, normalized to activity without peptide (100%) [6]: below 60%
16 | Chex-RPDKPRPSLPRSRPPRPVR-NH2 [compound 133, substituted analog of ARV-1502] | best binders | – | –
17 | Chex-RPDKPRPYKPDPRPPRPVR-NH2 [compound 160, substituted analog of ARV-1502] | best binders | – | –
18 | Chex-RPDKPRPYSPDPRPPRPVR-NH2 [compound 170, substituted analog of ARV-1502] | best binders | – | –
19 | Chex-RPDKPRPYSPLPRPPRPVR-NH2 [compound 172, substituted analog of ARV-1502] | best binders | – | –
20 | Chex-RPFFPRPKLPRPRPPRPVR-NH2 [compound 90, substituted analog of ARV-1502] | best binders | best binders | –
21 | Chex-RPFFPRPSLPRPRPPRPVR-NH2 [compound 91, substituted analog of ARV-1502] | best binders | best binders | –
22 | Chex-RPFFPRPYLPRSRPPRPVR-NH2 [compound 106, substituted analog of ARV-1502] | best binders | best binders | –
23 | Chex-RPFFPRPYLPSPRPPRPVR-NH2 [compound 101, substituted analog of ARV-1502] | best binders | best binders | –
24 | Chex-RPSSPRPYLPSPRPPRPVR-NH2 [compound 83, substituted analog of ARV-1502] | – | – | ATPase activity of the S. aureus DnaK/DnaJ/GrpE system, normalized to activity without peptide (100%) [5]: more than 160%
